Values of other authors as cited in US9333175B2, “Controlled release levetiracetam formulations and methods for producing the same” (Mylan Inc., priority 2010, dated 2016).

Settings: A. J. Gower et al., Eur. J. Pharmacol., 222, 1992, 193-203

Row | Compound | activity in the treatment of epilepsy
1 | CC[C@H](C(N)=O)N1CCCC1=O [(R)-(+)-alpha-ethyl-2-oxo-1-pyrrolidine acetamide] | completely lacks activity
2 | CC[C@@H](C(N)=O)N1CCCC1=O [Levetiracetam, (S)-(−)-alpha-ethyl-2-oxo-1-pyrrolidine acetamide] | effective in the treatment of epilepsy
